Where two headings read alike, the source gives them in different places.

Among the data in patent US20240287052A1, “NOVEL OXAZOLE DERIVATIVE AND PHARMACEUTICAL COMPOSITION FOR PREVENTING OR TREATING ALLERGIC DISEASES COMPRISING THE SAME” (AZCURIS CO., LTD., priority 2021, published 2024) are inhibition values, retold here.

This assay addresses T1, IL33 and ST2 binding (Homo sapiens, UniProt O95760).
T1 sequence (O95760 112-270 limits assumed): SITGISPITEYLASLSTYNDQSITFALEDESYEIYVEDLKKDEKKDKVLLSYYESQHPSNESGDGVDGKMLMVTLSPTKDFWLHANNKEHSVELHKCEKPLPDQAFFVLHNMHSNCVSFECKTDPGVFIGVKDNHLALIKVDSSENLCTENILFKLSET
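Note: plate ELISA with coated Flag-tagged human IL-33 and His-tagged human ST2, bound ST2 detected by anti-His HRP and TMB absorbance at 450 nm, 2 h compound incubation.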

For `CN1CCN(CCNC(=O)c2nc(-c3ccc([N+](=O)[O-])cc3)oc2-c2ccccc2[N+](=O)[O-])CC1` [Compound 278, N-(2-(4-Methylpiperazin-1-yl)ethyl)-5-(2-nitrophenyl)-2-(4-nitrophenyl)oxazole-4-carboxamide], the inhibition reads like this: (30 µM) 46%; (100 µM) 47%.

With `CN(C)CCNC(=O)c1nc(-c2ccc3ccccc3c2)oc1-c1ccccc1` [Compound 257, N-(2-(Dimethylamino)ethyl)-2-(naphthalen-2-yl)-5-phenyloxazole-4-carboxamide], the inhibition reads like this: (30 µM) 6%; (100 µM) 1%.

Turning to `CCOC(=O)c1nc(-c2cccc(F)c2)oc1-c1ccccc1[N+](=O)[O-]` [Compound 66, Ethyl 2-(3-fluorophenyl)-5-(2-nitrophenyl)oxazole-4-carboxylate], the inhibition runs as follows: (30 µM) 49%; (100 µM) 71%.

`O=C(c1nc(-c2ccc(C(F)(F)F)cc2)oc1-c1ccccc1[N+](=O)[O-])N1CCN(CCN2CCCC2)CC1` [Compound 170, (5-(2-Nitrophenyl)-2-(4-(trifluoromethyl)phenyl)oxazol-4-yl)(4-(2-(pyrrolidin-1-yl)ethyl)piperazin-1-yl)methanone]: the inhibition by setting is: (30 µM) 3%; (100 µM) 2%.

Regarding `CCOC(=O)c1nc(-c2ccc(F)c(F)c2)oc1-c1ccccc1` [Compound 70, Ethyl 2-(3,4-difluorophenyl)-5-phenyloxazole-4-carboxylate], the inhibition runs as follows: (30 µM) 18%; (100 µM) 41%.

As to `CN(C)CCNC(=O)c1nc(-c2ccc(C(F)(F)F)cc2)oc1-c1ccccc1` [Compound 126, N-(2-(Dimethylamino)ethyl)-5-phenyl-2-(4-(trifluoromethyl)phenyl)oxazole-4-carboxamide], the inhibition is -14% (30 µM) and 6% (100 µM).

As to `O=C(NCc1ccccc1)c1nc(-c2ccc(C(F)(F)F)cc2)oc1-c1ccccc1[N+](=O)[O-]` [Compound 164, N-Benzyl-5-(2-nitrophenyl)-2-(4-(trifluoromethyl)phenyl)oxazole-4-carboxamide], the inhibition reads like this: (30 µM) 9%; (100 µM) 4%.

Regarding `CCOC(=O)c1nc(-c2ccc(OC)cc2)oc1-c1ccccc1` [Compound 62, Ethyl 2-(4-methoxyphenyl)-5-phenyloxazole-4-carboxylate], the inhibition stood at 33% (30 µM) and 65% (100 µM).

As for `O=C(c1nc(-c2ccc(C(F)(F)F)cc2)oc1-c1ccccc1[N+](=O)[O-])N1CCC(c2ccccc2)CC1` [Compound 145, (5-(2-Nitrophenyl)-2-(4-(trifluoromethyl)phenyl)oxazol-4-yl)(4-phenylpiperidin-1-yl)methanone], the inhibition is 3% (30 µM) and 11% (100 µM).

Turning to `CN1CCN(CCNC(=O)c2nc(-c3ccc(F)cc3)oc2-c2ccccc2[N+](=O)[O-])CC1` [Compound 227, 2-(4-Fluorophenyl)-N-(2-(4-methylpiperazin-1-yl)ethyl)-5-(2-nitrophenyl)oxazole-4-carboxamide], the inhibition (30 µM) is -22% and the inhibition (100 µM) is -28%.

Turning to `CCOC(=O)c1nc(-c2ccc(C(F)(F)F)cc2)oc1-c1cccc(N(C(C)=O)C(C)=O)c1` [Compound 108, Ethyl 5-(3-(N-acetylacetamido)phenyl)-2-(4-(trifluoromethyl)phenyl)oxazole-4-carboxylate], the inhibition runs as follows: (30 µM) -14%; (100 µM) -21%.

For `CC(C)N1CCN(C(=O)c2nc(-c3ccc(C(F)(F)F)cc3)oc2-c2ccccc2[N+](=O)[O-])CC1` [Compound 168, (4-Isopropylpiperazin-1-yl)(5-(2-nitrophenyl)-2-(4-(trifluoromethyl)phenyl)oxazol-4-yl)methanone], the inhibition (30 µM) was determined as 12% and the inhibition (100 µM) is -12%.

Regarding `CN(C)CCN1CCN(C(=O)c2nc(-c3cccc(C(F)(F)F)c3)oc2-c2ccccc2[N+](=O)[O-])CC1` [Compound 125, (4-(2-(Dimethylamino)ethyl)piperazin-1-yl)(5-(2-nitrophenyl)-2-(3-(trifluoromethyl)phenyl)oxazol-4-yl)methanone], the inhibition reads like this: (30 µM) 20%; (100 µM) 24%.

Regarding `CN(C)CCNC(=O)c1nc(-c2cccc(OC(F)(F)F)c2)oc1-c1ccccc1` [Compound 199, N-(2-(Dimethylamino)ethyl)-5-phenyl-2-(3-(trifluoromethoxy)phenyl)oxazole-4-carboxamide], the inhibition is, setting by setting: (30 µM) 7%; (100 µM) 2%.

Regarding `CCOC(=O)c1nc(-c2ccc(-c3ccccc3)cc2)oc1-c1ccccc1` [Compound 81, Ethyl 2-([1,1′-biphenyl]-4-yl)-5-phenyloxazole-4-carboxylate], the inhibition reads like this: (30 µM) 59%; (100 µM) 109%.

For the compound `CN1CCN(CCNC(=O)c2nc(-c3cccc(OC(F)(F)F)c3)oc2-c2ccccc2)CC1` [Compound 200, N-(2-(4-Methylpiperazin-1-yl)ethyl)-5-phenyl-2-(3-(trifluoromethoxy)phenyl)oxazole-4-carboxamide], the inhibition was found to be 5% (30 µM) and 0% (100 µM).

With `CN(C)CCNC(=O)c1nc(-c2ccc(C#N)cc2)oc1-c1ccccc1[N+](=O)[O-]` [Compound 251, 2-(4-Cyanophenyl)-N-(2-(dimethylamino)ethyl)-5-(2-nitrophenyl)oxazole-4-carboxamide], the inhibition was -6% (30 µM) and -21% (100 µM).

`CCOC(=O)c1nc(-c2ccc(C(F)(F)F)cc2)oc1-c1ccc(N(C(C)=O)C(C)=O)cc1` [Compound 109, Ethyl 5-(4-(N-acetylacetamido)phenyl)-2-(4-(trifluoromethyl)phenyl)oxazole-4-carboxylate]: the inhibition is, setting by setting: (30 µM) 19%; (100 µM) -2%.

For `O=C(NCc1ccc(C(F)(F)F)cc1)c1nc(-c2ccc(C(F)(F)F)cc2)oc1-c1ccccc1[N+](=O)[O-]` [Compound 148, 5-(2-Nitrophenyl)-N-(4-(trifluoromethyl)benzyl)-2-(4-(trifluoromethyl)phenyl)oxazole-4-carboxamide], the inhibition (30 µM) came out at 12% and the inhibition (100 µM) turned out to be 19%.

Regarding `CN1CCN(CCNC(=O)c2nc(-c3ccc(C(C)(C)C)cc3)oc2-c2ccccc2)CC1` [Compound 266, 2-(4-(tert-butyl)phenyl)-N-(2-(4-methylpiperazin-1-yl)ethyl)-5-phenyloxazole-4-carboxamide], the inhibition reads like this: (30 µM) -29%; (100 µM) 10%.

For the compound `CN(C)CCNC(=O)c1nc(-c2ccc(F)cc2)oc1-c1ccccc1` [Compound 224, N-(2-(Dimethylamino)ethyl)-2-(4-fluorophenyl)-5-phenyloxazole-4-carboxamide], the inhibition reads like this: (30 µM) -13%; (100 µM) -18%.

On to `O=C(c1nc(-c2ccc(C(F)(F)F)cc2)oc1-c1ccccc1[N+](=O)[O-])N1CCOCC1` [Compound 156, Morpholino(5-(2-nitrophenyl)-2-(4-(trifluoromethyl)phenyl)oxazol-4-yl)methanone], for which the inhibition is -1% (30 µM) and 41% (100 µM).

Consider `CN1CCN(CCNC(=O)c2nc(-c3ccc4ccccc4c3)oc2-c2ccccc2)CC1` [Compound 258, N-(2-(4-Methylpiperazin-1-yl)ethyl)-2-(naphthalen-2-yl)-5-phenyloxazole-4-carboxamide], for which the inhibition by setting is: (30 µM) 35%; (100 µM) 49%.

As to `CN(C)CCNC(=O)c1nc(-c2ccc3ccccc3c2)oc1-c1ccccc1[N+](=O)[O-]` [Compound 259, N-(2-(Dimethylamino)ethyl)-2-(naphthalen-2-yl)-5-(2-nitrophenyl)oxazole-4-carboxamide], the inhibition runs as follows: (30 µM) 6%; (100 µM) 1%.

Take `CCOC(=O)c1nc(-c2cccc(C(F)(F)F)c2)oc1-c1ccccc1[N+](=O)[O-]` [Compound 30, Ethyl 5-(2-nitrophenyl)-2-(3-(trifluoromethyl)phenyl)oxazole-4-carboxylate]: the inhibition was found to be 42% (30 µM) and 102% (100 µM).

For `CCOC(=O)c1nc(-c2ccc(C(C)(C)C)cc2)oc1-c1ccc(NC(C)=O)cc1` [Compound 111, Ethyl 5-(4-acetamidophenyl)-2-(4-(tert-butyl)phenyl)oxazole-4-carboxylate], the inhibition worked out at 10% (30 µM) and 12% (100 µM).

Regarding `CN1CCN(CCNC(=O)c2nc(-c3ccc(OC(F)(F)F)cc3)oc2-c2ccccc2[N+](=O)[O-])CC1` [Compound 206, N-(2-(4-methylpiperazin-1-yl)ethyl)-5-(2-nitrophenyl)-2-(4-(trifluoromethoxy)phenyl)oxazole-4-carboxamide], the inhibition is, setting by setting: (30 µM) 23%; (100 µM) 49%.

Turning to `CN1CCN(CCNC(=O)c2nc(-c3ccc(-c4ccccc4)cc3)oc2-c2ccccc2[N+](=O)[O-])CC1` [Compound 256, 2-([1,1′-Biphenyl]-4-yl)-N-(2-(4-methylpiperazin-1-yl)ethyl)-5-(2-nitrophenyl)oxazole-4-carboxamide], the inhibition is, setting by setting: (30 µM) 3%; (100 µM) 49%.

On to `CCOC(=O)c1nc(-c2ccc(Cl)cc2)oc1-c1ccccc1[N+](=O)[O-]` [Compound 78, Ethyl 2-(4-chlorophenyl)-5-(2-nitrophenyl)oxazole-4-carboxylate], for which the inhibition (30 µM) was determined as 23% and the inhibition (100 µM) came to 68%.

With `CN(C)CCNC(=O)c1nc(-c2ccc(N(C)C)cc2)oc1-c1ccccc1` [Compound 261, N-(2-(Dimethylamino)ethyl)-2-(4-(dimethylamino)phenyl)-5-phenyloxazole-4-carboxamide], the inhibition turned out to be 3% (30 µM) and 8% (100 µM).

`CCN(CC)CCN1CCN(C(=O)c2nc(-c3ccc(C(F)(F)F)cc3)oc2-c2ccccc2[N+](=O)[O-])CC1` [Compound 154, (4-(2-(Diethylamino)ethyl)piperazin-1-yl)(5-(2-nitrophenyl)-2-(4-(trifluoromethyl)phenyl)oxazol-4-yl)methanone]: the inhibition was 0% (30 µM) and -25% (100 µM).
